Patent EP0428132A1, “Pradimicin derivatives” (Bristol-Myers Squibb Company, priority 1989, dated 1991)
Values after ≈ are worked out from the molar mass of the structure shown. Like-named read-outs stand apart in the source and are kept apart here. Marks after values point to notes of the source that are not given here.

Legend:
[1] = Water solubility, protocol I (PBS, HPLC); type: physicochemical; settings: Method I: PBS without CaCl₂ and MgCl₂.6H₂O
Description: The supernatant (2 µL) was analyzed by HPLC using the conditions specified for each compound in the Experimental Section. […] When not soluble, an additional amount of PBS (x µL) was added, sonicated, and centrifuged. When visibly soluble, the solution (2 µL) was injected to HPLC and the peak area was used for the known concentration of the sample.

Candida albicans A9540 [2] = experiment: Intravenous Candida albicans infection mouse model, Table 2 part B; type: in vivo, mice
Description: Several compounds were also evaluated in an intravenous Candida albicans […] infection mouse model. The test organism was suspended in saline approximately 10 times the median lethal dose of the fungus (10⁶ cells/mouse) were used to infect intravenously male ICR mice weighing 20 to 24 g. Groups of five mice at each dose level were given the test compounds intravenously or intramuscularly. The 50% protective dose (PD₅₀) was calculated from survival rates recorded 20 or 21 days after the fungal challenge. […]

[3] = tested on: Cryptococcus neoformans A15053; experiment: In vitro antifungal activity, serial agar dilution method (Table 1a); type: cell-based
Description: (§1) The inoculum size was adjusted to 10⁶ cells/ml, and a volume of approximately 0.003 ml of fungal suspension was applied to the surface of the antibiotic containing agar plates with a multiinoculator. After incubation, the lowest concentration of antibiotic causing virtually complete inhibition of fungal growth was determined as the minimum inhibitory concentration (MIC).

[4] = tested on: Trichophyton rubrum A26761; experiment: as above; type: cell-based; settings: A26761, pH 7, read-out: MICs, Trichophyton rubrum A26761
Description: as §1

[5] = tested on: Trichophyton mentagrophytes A26771; experiment: as above; type: cell-based
Description: as §1

Candida albicans A9540 [6] = experiment: as above; type: cell-based
Description: as §1

[7] = tested on: Candida paratropicalis A25825; experiment: as above; type: cell-based
Description: as §1

Candida albicans A25578 = experiment: as above; type: cell-based
Description: as §1

[8] = tested on: Candida pseudotropicalis A25802; experiment: as above; type: cell-based; settings: Kluyveromyces marxianus, YM agar (pH 7.0, Difco), 30°C for 2 days (yeast) or 4 days (filamentous fungi), read-out: MICs, Candida pseudotropicalis A25802
Description: as §1

[9] = tested on: Microsporum canis WW10218; experiment: as above; type: cell-based; settings: WW10218, pH 7, read-out: MICs, Microsporum canis WW10218
Description: as §1

[10] = tested on: Microsporum gypseum WW1107; experiment: as above; type: cell-based; settings: Nannizzia gypsea, YM agar (pH 7.0, Difco), 30°C for 2 days (yeast) or 4 days (filamentous fungi), read-out: MICs, Microsporum gypseum WW1107
Description: as §1

[11] = tested on: Candida tropicalis A25812; experiment: as above; type: cell-based
Description: as §1

[12] = tested on: Saccharomyces cerevisiae A25803; experiment: as above; type: cell-based; settings: YM agar (pH 7.0, Difco), 30°C for 2 days (yeast) or 4 days (filamentous fungi), read-out: MICs, Saccharomyces cerevisiae A25803
Description: as §1

[13] = tested on: Candida tropicalis A25809; experiment: as above; type: cell-based; settings: YM agar (pH 7.0, Difco), 30°C for 2 days (yeast) or 4 days (filamentous fungi), read-out: MICs, Candida tropicalis A25809
Description: as §1

M. gypseum A26835 = experiment: In vitro antifungal activity, serial agar dilution method (Table 1a, footnote strain 4); type: cell-based, Microsporum gypseum; settings: Nannizzia gypsea, A26835, pH 7, read-out: MICs, M. gypseum A26835
Description: as §1

M. canis A26834 = experiment: In vitro antifungal activity, serial agar dilution method (Table 1a, footnote strain 5); type: cell-based; settings: Microsporum canis, A26834, pH 7, read-out: MICs, M. canis A26834
Description: as §1

[14] = A15053, YM agar (pH 7.0, Difco), 30°C for 2 days (yeast) or 4 days (filamentous fungi), read-out: MICs, Cryptococcus neoformans A15053
[15] = A26771, YM agar (pH 7.0, Difco), 30°C for 2 days (yeast) or 4 days (filamentous fungi), read-out: MICs, Trichophyton mentagrophytes A26771
[16] = A9540, YM agar (pH 7.0, Difco), 30°C for 2 days (yeast) or 4 days (filamentous fungi), read-out: MICs, Candida albicans A9540
[17] = YM agar (pH 7.0, Difco), 30°C for 2 days (yeast) or 4 days (filamentous fungi), read-out: MICs, Candida paratropicalis A25825
[18] = A25578, YM agar (pH 7.0, Difco), 30°C for 2 days (yeast) or 4 days (filamentous fungi), read-out: MICs, Candida albicans A25578
[19] = A25812, YM agar (pH 7.0, Difco), 30°C for 2 days (yeast) or 4 days (filamentous fungi), read-out: MICs, Candida tropicalis A25812
[20] = Part B: route IV, at 1 and 3.5 hrs after infection and twice on the following day, 21 days after fungal challenge, method of Spearman-Karber, male ICR mice

Structure (SMILES)	solubility [1]	PD₅₀ (Candida albicans A9540 [2]; mouse, in vivo)	MIC [3, 14]	MIC [4]	MIC [5, 15]	MIC (Candida albicans A9540 [6]; [16])	MIC [7, 17]	MIC (Candida albicans A25578; [18])	MIC [8]	MIC [9]	MIC [10]	MIC [11, 19]	MIC [12]	MIC [13]	PD₅₀ (Candida albicans A9540 [2]; [20])	further results
COc1cc(O)c2c(c1)C(=O)c1c(cc3c(c1O)-c1c(cc(C)c(C(=O)N[C@H](C)C(=O)O)c1O)[C@H](O[C@@H]1O[C@H](C)[C@H](N(C)CC(=O)O)[C@H](O)[C@H]1O)[C@H]3O)C2=O [Ex. 4, N-carboxymethyl pradimicin B]	> 10000 µg/mL	>50** mg/kg	1.6 µg/mL (≈ 2.09 µM)	12.5 µg/mL (≈ 16.3 µM)	12.5 µg/mL (≈ 16.3 µM)	3.2 µg/mL (≈ 4.17 µM)	3.2 µg/mL (≈ 4.17 µM)	1.6 µg/mL (≈ 2.09 µM)	1.6 µg/mL (≈ 2.09 µM)	6.3 µg/mL (≈ 8.22 µM)	25 µg/mL (≈ 32.6 µM)	3.2 µg/mL (≈ 4.17 µM)	0.8 µg/mL (≈ 1.04 µM)	1.6 µg/mL (≈ 2.09 µM)	–	–
CNC(=O)N(C)[C@@H]1[C@H](O)[C@@H](O)[C@H](O[C@H]2c3cc(C)c(C(=O)N[C@H](C)C(=O)O)c(O)c3-c3c(cc4c(c3O)C(=O)c3cc(OC)cc(O)c3C4=O)[C@@H]2O)O[C@@H]1C [Ex. 18, N-(N-methylcarbamoyl) pradimicin B]	4000 µg/mL (≈ 5220 µM)	–	–	> 50 µg/mL	–	–	–	–	3.2 µg/mL (≈ 4.18 µM)	–	–	–	–	–	–	MIC (M. gypseum A26835): > 50 µg/mL; MIC (M. canis A26834): > 50 µg/mL; MIC ([3]; A15053, pH 7, read-out: MICs, Cryptococcus neoformans A15053): > 50 µg/mL; MIC ([5]; A26771, pH 7, read-out: MICs, Trichophyton mentagrophytes A26771): > 50 µg/mL; MIC (Candida albicans A9540 [6]; A9540, pH 7, read-out: MICs, Candida albicans A9540): 25 µg/mL (≈ 32.6 µM); MIC ([7]; pH 7, read-out: MICs, Candida paratropicalis A25825): 25 µg/mL (≈ 32.6 µM); MIC (Candida albicans A25578; A25578, pH 7, read-out: MICs, Candida albicans A25578): 25 µg/mL (≈ 32.6 µM); MIC ([11]; A25812, pH 7, read-out: MICs, Candida tropicalis A25812): 25 µg/mL (≈ 32.6 µM)
CN[C@@H]1[C@H](O)[C@@H](O)[C@H](O[C@H]2c3cc(C)c(C(=O)N[C@H](C)C(=O)O)c(O)c3-c3c(cc4c(c3O)C(=O)c3cc(OC)cc(O)c3C4=O)[C@@H]2O)O[C@@H]1C [Pradimicin B, reference compound]	70 µg/mL (≈ 98.8 µM)	–	0.8 µg/mL (≈ 1.13 µM)	3.2 µg/mL (≈ 4.52 µM)	3.2 µg/mL (≈ 4.52 µM)	3.2 µg/mL (≈ 4.52 µM)	3.2 µg/mL (≈ 4.52 µM)	1.6 µg/mL (≈ 2.26 µM)	0.8 µg/mL (≈ 1.13 µM)	3.2 µg/mL (≈ 4.52 µM)	12.5 µg/mL (≈ 17.6 µM)	3.2 µg/mL (≈ 4.52 µM)	0.8 µg/mL (≈ 1.13 µM)	0.8 µg/mL (≈ 1.13 µM)	32 mg/kg	PD₅₀ (Candida albicans A9540 [2]; Part B: route IM, at 1 and 3.5 hrs after infection and twice on the following day, 21 days after fungal challenge, method of Spearman-Karber, male ICR mice): >50 mg/kg
C#CCN(C)[C@@H]1[C@H](O)[C@@H](O)[C@H](O[C@H]2c3cc(C)c(C(=O)N[C@H](C)C(=O)O)c(O)c3-c3c(cc4c(c3O)C(=O)c3cc(OC)cc(O)c3C4=O)[C@@H]2O)O[C@@H]1C [Ex. 23, N-(Propargyl) pradimicin B]	500 µg/mL (≈ 670 µM)	>50 mg/kg	1.6 µg/mL (≈ 2.14 µM)	25 µg/mL (≈ 33.5 µM)	25 µg/mL (≈ 33.5 µM)	50 µg/mL (≈ 67 µM)	> 50 µg/mL	1.6 µg/mL (≈ 2.14 µM)	1.6 µg/mL (≈ 2.14 µM)	25 µg/mL (≈ 33.5 µM)	50 µg/mL (≈ 67 µM)	50 µg/mL (≈ 67 µM)	0.8 µg/mL (≈ 1.07 µM)	1.6 µg/mL (≈ 2.14 µM)	–	–
COc1cc(O)c2c(c1)C(=O)c1c(cc3c(c1O)-c1c(cc(C)c(C(=O)N[C@H](C)C(=O)O)c1O)[C@H](O[C@@H]1O[C@H](C)[C@H](N(C)CC(N)=O)[C@H](O)[C@H]1O)[C@H]3O)C2=O [Ex. 5, N-(carbamoylmethyl) pradimicin B]	> 4000 µg/mL	–	0.8 µg/mL (≈ 1.04 µM)	1.6 µg/mL (≈ 2.09 µM)	1.6 µg/mL (≈ 2.09 µM)	3.2 µg/mL (≈ 4.18 µM)	3.2 µg/mL (≈ 4.18 µM)	0.8 µg/mL (≈ 1.04 µM)	0.8 µg/mL (≈ 1.04 µM)	1.6 µg/mL (≈ 2.09 µM)	3.2 µg/mL (≈ 4.18 µM)	3.2 µg/mL (≈ 4.18 µM)	0.8 µg/mL (≈ 1.04 µM)	0.8 µg/mL (≈ 1.04 µM)	>50** mg/kg	–
